Data: patent publication US20220364065A1, “COMPOSITION FOR REMOVING PLURIPOTENT STEM CELLS AND METHOD OF REMOVING PLURIPOTENT STEM CELLS” (NATIONAL UNIVERSITY CORPORATION HOKKAIDO UNIVERSITY, priority 2018, published 2022)

System: mouse ES cells
Assay: MTT assay, viability of mouse ES cells
Type: cell-based
Settings: 3 days
Experimental: One thousand cells were seeded into each well of a 96-well plate and cultured for 3 days in medium (200 μL/well) supplemented with only DMSO at a final concentration of 0.1% or in medium (200 μL/well) supplemented with each dihydroorotate dehydrogenase (DHODH) inhibitor. The medium used was the appropriate culture solution for each cell as described above.
The concentration of each DHODH inhibitor added to the medium was a 2-fold dilution series starting from 200 μM.
As a background, a well containing medium only was prepared, and as a control, a well was also prepared in which medium containing Triton X-100 (final concentration 0.2%) was added to the cells.
Then, 5 μL of MTT (5 mg/ml, manufactured by Wako) was added to each well, and the cells were incubated at 37° C. for 2 to 3 hours. Then, the medium was replaced with 100 μL of DMSO to lyse the cells, and the absorbance of these cell lysates at a wavelength of 570 nm was measured with a microplate reader (manufactured by Bio-Rad, Benchmark model). In addition, based on the obtained absorbance, the cell viability was calculated by the following formula.
Cell viability (%)=(absorbance in wells with DHODH inhibitor-absorbance in background)/(absorbance in control-absorbance in background)×100.

## Cc1c(-c2ccc(-c3ccccc3F)cc2)nc2ccc(F)cc2c1C(=O)O [BRQ, 6-fluoro-2-(2′-fluoro-1,1′-biphenyl-4-yl)-3-methyl-4-quinoline-sodium carboxylate]
10 μM BRQ
  cytotoxic activity (viability, MTT assay): significant cytotoxic activity
2-fold dilution series starting from 200 μM
  cytotoxic activity (viability, MTT assay): significant cytotoxic activity
